Experiment [1] concerns Human bone marrow derived mesenchymal stem cells. Description: CXCL9 mRNA induction (quantitative real-time PCR) in mesenchymal stem cells, type 2 priming. It counts as cell-based. As to conditions: normalized to 18S rRNA. The method, then:
Referring to FIG. 3A and FIG. 3B, Type 2 mesenchymal stem cell priming by TLR3 is further enhanced with Acetylcholine (ACH), Glutamate (GLU), and Lipoxin A4 (LAX4). Human bone marrow derived mesenchymal stem cells were induced into type 2 mesenchymal cells using poly(I:C) and 0.5 ng/ml of human recombinant erythropoictin. Total RNA was isolated, purified, and reverse transcribed to cDNA. Quantitative real-time PCR was carried out using SYBR Green Master Mix. Data were analyzed using the quantitative comparative CT method, normalizing target gene expression to the 18S rRNA housekeeping gene, and shown as fold increase over the untreated control. […] Error bars represent +/− the standard error of the mean (SEM).
Background: Real-time PCR tracks product formation cycle by cycle.

For experiment [2] the test system is unchanged. Briefly: TNFSF10 (TRAIL) mRNA induction (quantitative real-time PCR) in mesenchymal stem cells, type 1 priming. Type of experiment: cell-based. As to conditions: normalized to 18S rRNA. On the procedure:
Referring to FIG. 4A and FIG. 4B, Type 1 mesenchymal stem cell priming by TLR4 is further enhanced with leukotriene B4 (LTB4), serotonin (5-HT), melatonin (MEL). Human bone marrow derived mesenchymal stem cells were induced into type 1 mesenchymal stem cells using lipopolysaccharide (LPS) and 0.5 ng/ml of human recombinant erythropoietin. Total RNA was isolated, purified, and reverse transcribed to cDNA. Quantitative real-time PCR was carried out using SYBR Green Master Mix. Data were analyzed using the quantitative comparative CT method, normalizing target gene expression to the 18S rRNA housekeeping gene, and shown as fold increase over the untreated control. […] Error bars represent +/− the standard error of the mean (SEM). […] TLR4 (approx. 425,854-fold FIG. 4A; approx. 7,567-fold FIG. 4B), LTB4 (approx. 49-fold FIG. 4A; approx. 49-fold FIG. 4B), 5-HT (approx. 333-fold FIG. 4B), or MEL (approx. 489-fold FIG. 4B).

With poly(I:C) [TLR3], the “CXCL9 gene expression, fold increase over the untreated control” value (“CXCL9 gene expression, fold increase” for short) in experiment [1] (FIG. 3A experiment) was “approx. 8.8 fold”; in experiment [1] (FIG. 3B experiment) it was “approx. 22 fold”. Take `CCCCC/C=C\C[C@@H](O)/C=C/C=C/C=C\[C@@H](O)CCCC(=O)O` [LTB4, leukotriene B4]: the “TNFSF10 (TRAIL) gene expression, fold increase over the untreated control” value in experiment [2] (FIG. 4A experiment) and in experiment [2] (FIG. 4B experiment) was “approx. 49 fold” throughout. Turning to `CC(=O)OCC[N+](C)(C)C` [ACH, Acetylcholine], the results for the “CXCL9 gene expression, fold increase” value in experiment [1] (FIG. 3A experiment) and in experiment [1] (FIG. 3B experiment) were “approx. 3.7 fold” and “approx. 20 fold”, respectively. For `NCCc1c[nH]c2ccc(O)cc12` [5-HT, serotonin], the “TNFSF10 (TRAIL) gene expression, fold increase over the untreated control” value in experiment [2] (FIG. 4B experiment) is recorded as “approx. 333 fold”. In the case of `N[C@@H](CCC(=O)O)C(=O)O` [GLU, Glutamate], the “CXCL9 gene expression, fold increase” value in experiment [1] (FIG. 3A experiment) is “approx. 1.4 fold”; in experiment [1] (FIG. 3B experiment), “approx. 16 fold”. Take `COc1ccc2[nH]cc(CCNC(C)=O)c2c1` [MEL, melatonin]: in experiment [2] (FIG. 4B experiment), the “TNFSF10 (TRAIL) gene expression, fold increase over the untreated control” value is “approx. 489 fold”. In the case of `CCCCC[C@H](O)/C=C/C=C\C=C\C=C\[C@@H](O)[C@@H](O)CCCC(=O)O` [LAX4, Lipoxin A4], the “CXCL9 gene expression, fold increase” value is “approx. −2 fold” in experiment [1] (FIG. 3A experiment) and “approx. 13 fold” in experiment [1] (FIG. 3B experiment).

The values above are taken from US12553033B2, “Medium, methods, cells and secreted factors for stem cell culture and therapy” (SanBio, Inc., priority 2016, dated 2026).
